Key:
[1] = test system: DOHH2 cells; assay: Medium throughput combination proliferation assay (CellTiter-Glo, Chou-Talalay CI / potency shift); conditions: DOHH2 EZH2 wild-type cells
[2] = test system: glucocorticoid signaling genes in SU-DHL4 cells; assay: RT2 Glucocorticoid Signaling PCR array; type: cell-based; parameters: IL10 Ct Values / TNF Ct Values: unit not given here; conditions: SUDHL4 cell line, 4 days
[3] = test system: WSU-DLCL2 cells; assay: Medium throughput combination proliferation assay (CellTiter-Glo, Chou-Talalay CI / potency shift)

CCN(c1cc(-c2ccc(CN3CCOCC3)cc2)cc(C(=O)NCc2c(C)cc(C)[nH]c2=O)c1C)C1CCOCC1 [Compound 44]
anti-proliferative effect as a single agent [1]: no anti-proliferative effect | ACTB Ct Values [2]: 14.247 | ADARB1 Ct Values [2]: 28.562 | AFF1 Ct Values [2]: 25.936 | AK2 Ct Values [2]: 20.311 | AMPD3 Ct Values [2]: 25.553 | ANGPTL4 Ct Values [2]: 29.825 | ANXA4 Ct Values [2]: 28.717 | ARID5B Ct Values [2]: 25.129 | ASPH Ct Values [2]: 23.348 | ATF4 Ct Values [2]: 18.778 | B2M Ct Values [2]: 18.971 | BCL6 Ct Values [2]: 21.075 | CEBPA Ct Values [2]: 31.206 | CEBPB Ct Values [2]: 23.911 | CREB1 Ct Values [2]: 22.973 | CREB3 Ct Values [2]: 24.566 | CREB3L4 Ct Values [2]: 25.089 | CYB561 Ct Values [2]: 36.737 | DDIT4 Ct Values [2]: 21.455 | DUSP1 Ct Values [2]: 26.325 | EDN1 Ct Values [2]: 33.297 | EHD3 Ct Values [2]: 25.766 | FKBP5 Ct Values [2]: 20.494 | FOSL2 Ct Values [2]: 31.757 | GAPDH Ct Values [2]: 15.835 | GDPD1 Ct Values [2]: 28.134 | GHRHR Ct Values [2]: 37.623 | GLUL Ct Values [2]: 35.795 | GOT1 Ct Values [2]: 22.607 | H6PD Ct Values [2]: 25.743 | HAS2 Ct Values [2]: 35.628 | HNRPLL Ct Values [2]: 22.977 | HPRT1 Ct Values [2]: 21.358 | IL6R Ct Values [2]: 33.589 | IL10 Ct Values [2]: 33.099 | KLF9 Ct Values [2]: 27.456 | KLF13 Ct Values [2]: 22.649 | MT2A Ct Values [2]: 24.175 | NFKBIA Ct Values [2]: 22.909 | NR3C1 Ct Values [2]: 22.803 | PDCD7 Ct Values [2]: 24.858 | PDP1 Ct Values [2]: 26.112 | PER1 Ct Values [2]: 24.926 | PER2 Ct Values [2]: 24.371 | PIK3R1 Ct Values [2]: 23.440 | PLEKHF1 Ct Values [2]: 27.868 | POU2F1 Ct Values [2]: 24.224 | POU2F2 Ct Values [2]: 21.920 | RASA3 Ct Values [2]: 23.207 | RGS2 Ct Values [2]: 25.145 | RHOB Ct Values [2]: 32.584 | RPLP0 Ct Values [2]: 15.469 | SGK1 Ct Values [2]: 25.808 | SLC10A6 Ct Values [2]: 34.857 | SLC19A2 Ct Values [2]: 27.465 | SLC22A5 Ct Values [2]: 28.544 | SNTA1 Ct Values [2]: 24.797 | SPHK1 Ct Values [2]: 30.619 | SPSB1 Ct Values [2]: 26.495 | STAT5A Ct Values [2]: 25.174 | STAT5B Ct Values [2]: 22.153 | TBL1XR1 Ct Values [2]: 20.805 | TNF Ct Values [2]: 29.337 | TNFAIP3 Ct Values [2]: 28.521 | TSC22D3 Ct Values [2]: 21.432 | USP2 Ct Values [2]: 21.342 | USP54 Ct Values [2]: 26.952 | VDR Ct Values [2]: 28.330 | VLDLR Ct Values [2]: 28.792 | ZFP36 Ct Values [2]: 24.706 | ZHX3 Ct Values [2]: 24.719 | ZNF281 Ct Values [2]: 23.881 | AK2 ΔΔCT ([2]; compared to DMSO): −0.570 | CREB3 ΔΔCT ([2]; compared to DMSO): −0.490 | FKBP5 ΔΔCT ([2]; compared to DMSO): 0.008 | GOT1 ΔΔCT ([2]; compared to DMSO): 0.065 | TSC22D3 ΔΔCT ([2]; compared to DMSO): −0.002 | ACTB ΔCT (B2M) ([2]; normalized to B2M): −4.472 | ADARB1 ΔCT (B2M) ([2]; normalized to B2M): 8.878 | AFF1 ΔCT (B2M) ([2]; normalized to B2M): 7.118 | AK2 ΔCT (B2M) ([2]; normalized to B2M): 1.846 | AMPD3 ΔCT (B2M) ([2]; normalized to B2M): 6.024 | ANGPTL4 ΔCT (B2M) ([2]; normalized to B2M): 10.570 | ANXA4 ΔCT (B2M) ([2]; normalized to B2M): 8.217 | AQP1 ΔCT (B2M) ([2]; normalized to B2M): 14.226 | ARID5B ΔCT (B2M) ([2]; normalized to B2M): 5.748 | ASPH ΔCT (B2M) ([2]; normalized to B2M): 3.985 | ATF4 ΔCT (B2M) ([2]; normalized to B2M): 0.232 | B2M ΔCT (B2M) ([2]; normalized to B2M): 0.000 | BCL6 ΔCT (B2M) ([2]; normalized to B2M): 1.878 | CEBPA ΔCT (B2M) ([2]; normalized to B2M): 10.026 | CEBPB ΔCT (B2M) ([2]; normalized to B2M): 5.188 | CREB1 ΔCT (B2M) ([2]; normalized to B2M): 4.237 | CREB3L4 ΔCT (B2M) ([2]; normalized to B2M): 5.662 | CREB3 ΔCT (B2M) ([2]; normalized to B2M): 5.665 | CYB561 ΔCT (B2M) ([2]; normalized to B2M): 14.250 | DDIT4 ΔCT (B2M) ([2]; normalized to B2M): 3.098 | DIRAS2 ΔCT (B2M) ([2]; normalized to B2M): 14.626 | DUSP1 ΔCT (B2M) ([2]; normalized to B2M): 7.998 | EDN1 ΔCT (B2M) ([2]; normalized to B2M): 13.616 | FKBP5 ΔCT (B2M) ([2]; normalized to B2M): 3.113 | FOSL2 ΔCT (B2M) ([2]; normalized to B2M): 14.606 | GAPDH ΔCT (B2M) ([2]; normalized to B2M): −2.966 | GDPD1 ΔCT (B2M) ([2]; normalized to B2M): 8.216 | GLUL ΔCT (B2M) ([2]; normalized to B2M): 15.658 | GOT1 ΔCT (B2M) ([2]; normalized to B2M): 4.103 | H6PD ΔCT (B2M) ([2]; normalized to B2M): 6.063 | HAS2 ΔCT (B2M) ([2]; normalized to B2M): 13.205 | HNRPLL ΔCT (B2M) ([2]; normalized to B2M): 3.821 | HPRT1 ΔCT (B2M) ([2]; normalized to B2M): 2.826 | IL1RN ΔCT (B2M) ([2]; normalized to B2M): 17.503 | IL6R ΔCT (B2M) ([2]; normalized to B2M): 13.239 | IL10 ΔCT (B2M) ([2]; normalized to B2M): 12.363 | KLF9 ΔCT (B2M) ([2]; normalized to B2M): 8.013 | KLF13 ΔCT (B2M) ([2]; normalized to B2M): 4.078 | MERTK ΔCT (B2M) ([2]; normalized to B2M): 15.103 | MT2A ΔCT (B2M) ([2]; normalized to B2M): 4.766 | NFKBIA ΔCT (B2M) ([2]; normalized to B2M): 4.260 | NR3C1 ΔCT (B2M) ([2]; normalized to B2M): 4.025 | PDCD7 ΔCT (B2M) ([2]; normalized to B2M): 5.357 | PDGFRB ΔCT (B2M) ([2]; normalized to B2M): 16.449 | PDP1 ΔCT (B2M) ([2]; normalized to B2M): 6.751 | PER1 ΔCT (B2M) ([2]; normalized to B2M): 6.217 | PER2 ΔCT (B2M) ([2]; normalized to B2M): 5.647 | PIK3R1 ΔCT (B2M) ([2]; normalized to B2M): 4.859 | PLEKHF1 ΔCT (B2M) ([2]; normalized to B2M): 8.928 | POU2F1 ΔCT (B2M) ([2]; normalized to B2M): 5.110 | POU2F2 ΔCT (B2M) ([2]; normalized to B2M): 3.085 | RASA3 ΔCT (B2M) ([2]; normalized to B2M): 4.228 | RGS2 ΔCT (B2M) ([2]; normalized to B2M): 5.914 | RHOB ΔCT (B2M) ([2]; normalized to B2M): 11.328 | RHOJ ΔCT (B2M) ([2]; normalized to B2M): 19.737 | RPLP0 ΔCT (B2M) ([2]; normalized to B2M): −3.490 | SESN1 ΔCT (B2M) ([2]; normalized to B2M): 6.439 | SGK1 ΔCT (B2M) ([2]; normalized to B2M): 7.757 | SLC10A6 ΔCT (B2M) ([2]; normalized to B2M): 15.580 | SLC19A2 ΔCT (B2M) ([2]; normalized to B2M): 7.877 | SLC22A5 ΔCT (B2M) ([2]; normalized to B2M): 8.969 | SNTA1 ΔCT (B2M) ([2]; normalized to B2M): 5.666 | SPHK1 ΔCT (B2M) ([2]; normalized to B2M): 10.251 | SPSB1 ΔCT (B2M) ([2]; normalized to B2M): 6.832 | STAT5A ΔCT (B2M) ([2]; normalized to B2M): 6.005 | STAT5B ΔCT (B2M) ([2]; normalized to B2M): 3.152 | TBL1XR1 ΔCT (B2M) ([2]; normalized to B2M): 2.099 | TNF ΔCT (B2M) ([2]; normalized to B2M): 10.753 | TNFAIP3 ΔCT (B2M) ([2]; normalized to B2M): 9.051 | TSC22D3 ΔCT (B2M) ([2]; normalized to B2M): 4.628 | USP2 ΔCT (B2M) ([2]; normalized to B2M): 3.364 | USP54 ΔCT (B2M) ([2]; normalized to B2M): 15.234 | VDR ΔCT (B2M) ([2]; normalized to B2M): 8.200 | VLDLR ΔCT (B2M) ([2]; normalized to B2M): 9.068 | ZFP36 ΔCT (B2M) ([2]; normalized to B2M): 6.014 | ZHX3 ΔCT (B2M) ([2]; normalized to B2M): 5.569 | ZNF281 ΔCT (B2M) ([2]; normalized to B2M): 5.057 | maximum reduction in Compound 44 IC50 with Prednisolone ([3]; WSU-DLCL2 (FIG. 3A)): 24 fold | potency enhancement of Compound 44 at biologically relevant concentration of Dexamethasone ([3]; WSU-DLCL2, 100 nM Dexamethasone): 15 fold | potency enhancement of Compound 44 at biologically relevant concentration of Prednisolone ([3]; WSU-DLCL2, 1 μM Prednisolone): 7 fold

Source: patent US10463671B2, “Combination therapy for treating cancer” (Epizyme, Inc., priority 2013, dated 2019)
